Test results taken from US20190105367A1, “ANTIMICROBIAL 4-OXOQUINOLIZINES” (Emergent Product Development Gaithersburg Inc., priority 2011, published 2019).
≈ marks a conversion by molar mass, not a printed value. Where “and” joins values, the source holds several entries; their conditions need not be identical. Identical values can stand only once. Like-named read-outs stand apart in the source and are kept apart here.

Key:
[1] = test system: GN31 Acinetobacter baumannii antibiotic susceptible isolate; test: Chequerboard synergy with polymyxin B, FICI (Example 6); type: cell-based
Text: (§1) A chequerboard technique was used to identify possible synergistic or antagonistic interactions between the 4-oxoquinolizines compounds, levofloxacin and polymyxin B. Levofloxacin was included as a control. […] Final dilutions were made in Mueller-Hinton broth, the specific test medium used for MIC determinations according to CLSI guidelines (CLSI. Methods for Dilution Antimicrobial Susceptibility Tests for Bacteria That Grow Aerobically; Approved Standard-Eighth Edition (2009). CLSI Document M07-A8. CLSI, Wayne, Pa. 19087-1898, USA.). The test medium used was a cation-adjusted Mueller-Hinton Broth II (Becton Dickinson UK Ltd., Oxford Science Park, Oxford, UK, OX4 4DQ).
(§2) The compounds 2, 33 and 35, as well as levofloxacin were tested in combination with polymyxin B on the following isolates: GN31 Acinetobacter baumannii—antibiotic susceptible clinical isolate, GN52 Acinetobacter baumannii—levofloxacin resistant clinical isolate, GN56 Acinetobacter baumannii—levofloxacin resistant clinical isolate, GN48 Klebsiella pneumoniae—NCTC 13443—NDM-1-metallo-β-lactamase and GN10 Pseudomonas aeruginosa—ATCC 27853—antibiotic susceptible reference isolate. All isolates are from the collection maintained at Quotient Bioresearch Ltd., Cambridge, UK.
(§3) The MIC values for the compounds and polymyxin B and levofloxacin were determined by broth microdilution following CLSI guidelines, and the MICs of agents in combination were determined as described by Pillai et. al (Pillai S K, Moellering R C Jr, Eliopoulis G M; Antimicrobial Combinations in Antibiotics in Laboratory Medicine 5th Edition (V. Lorian Ed) (2005) p 365-440). Initial MIC results were used to determine the microtiter plate patterns for the chequerboards. A suitable doubling dilution concentration range was selected such that the combination antibiotic range was at least two concentrations above and four concentrations below the MIC for each isolate. A fixed range of 0.008 to 8 mg/L was tested for polymyxin B except in the case of A. baumannii GN31 where a range of 0.004 to 4 mg/L was tested when in combination with the compounds 2, 33 and 35 as well as levofloxacin.
(§4) From the raw data, fractional inhibitory concentration indices (FICI) were determined for the compounds of the invention and levofloxacin together with polymyxin B for each isolate as follows:
(§5) FICX=concentration of the combination antibiotic in a particular row MIC of the combination drug alone
(§6) FICY=MIC of polymyxin B in combination[…]MIC of the polymyxin B alone
(§7) Additionally isobolograms were created to represent the same data visually. Here, the MIC of polymyxin B was plotted against every concentration of the combination antibiotic up to the MIC.

[2] = test system: GN48 Klebsiella pneumoniae NCTC 13443 NDM-1-β-lactamase producing isolate; test: as above; type: cell-based
Text: as §1, §2, §3, §4, §5, §6, §7

[3] = test system: GN52 Acinetobacter baumannii levofloxacin resistant clinical isolate; test: as above; type: cell-based
Text: as §1, §2, §3, §4, §5, §6, §7

[4] = test system: GN56 Acinetobacter baumannii levofloxacin resistant clinical isolate; test: as above; type: cell-based
Text: as §1, §2, §3, §4, §5, §6, §7

A. baumannii J2 = test: Preliminary MBC without and with sub-inhibitory polymyxin B (Example 4); type: cell-based, Acinetobacter baumannii
[5] = test system: Acinetobacter sp. (H064200250); test: as above; type: cell-based; details: preliminary MBC
Experimental: The plates were incubated for 18-20 hours at 37° C. The MBC was read as the lowest concentration at which colony growth was ca. 90% less than the positive control (i.e. usually where single colonies or no colonies were observed).

A. baumannii A329 = test: as above; type: cell-based, Acinetobacter baumannii; details: for MBC: 2nd experiment
A. baumannii A489 = test: as above; type: cell-based, Acinetobacter baumannii
[6] = in combination with polymyxin B
[7] = polymyxin B with the named antibiotic
[8] = Acinetobacter baumannii, J2, A. baumannii J2, +[…] PB, preliminary MBC, 2nd experiment, read-out: MBC
[9] = Acinetobacter, Acinetobacter spp. H064200250 (OXA51), +[…] PB, 2nd experiment, read-out: MBC
[10] = Acinetobacter baumannii, A329, A. baumannii A329, +0.06 μg/ml PB, read-out: MBC
[11] = Acinetobacter baumannii, A489, A. baumannii A489, +[…] PB, preliminary MBC, 2nd experiment, read-out: MBC
[12] = Acinetobacter baumannii, J2, read-out: MBC +[…] PB, A. baumannii J2, +[…] polymyxin B, preliminary MBC, 1st experiment
[13] = Acinetobacter baumannii, A489, read-out: MBC +[…] PB, A. baumannii A489, +[…] polymyxin B, preliminary MBC, 1st experiment
[14] = Acinetobacter spp. H064200250 (OXA51), +[…] PB, 2nd experiment
[15] = A. baumannii A329, +0.06 μg/ml PB

## C[C@H]1COc2c(N3CCN(C)CC3)c(F)cc3c(=O)c(C(=O)O)cn1c23 [Levofloxacin, reference compound]
[1]
  Combination drug MIC alone: 0.06 µg/mL
  FICx: 0.13
  FICy: 1.00
[1]; combination with polymyxin B
  FICI: 1.13
  Synergy: Indifferent (indifference (FICI 0.76 to 2.75))
[1]; [6]
  Combination drug concentration in combination: 0.008 mg/L
[1]; [7]
  Polymyxin B MIC in combination: 0.5 µg/mL
[2]
  Combination drug MIC alone: 64 µg/mL
  FICx: 0.13
  FICy: 1.00
[2]; combination with polymyxin B
  FICI: 1.13
  Synergy: Indifferent (indifference (FICI 0.76 to 2.75))
[2]; [6]
  Combination drug concentration in combination: 8 mg/L
[2]; [7]
  Polymyxin B MIC in combination: 0.5 µg/mL
[3]
  Combination drug MIC alone: 8 µg/mL
  FICx: 0.13
  FICy: 1.00
[3]; combination with polymyxin B
  FICI: 1.13
  Synergy: Indifferent (indifference (FICI 0.76 to 2.75))
[3]; [6]
  Combination drug concentration in combination: 1 mg/L
[3]; [7]
  Polymyxin B MIC in combination: 0.5 µg/mL
[4]
  Combination drug MIC alone: 32 µg/mL
  FICx: 0.13
  FICy: 1.00
[4]; combination with polymyxin B
  FICI: 1.13
  Synergy: Indifferent (indifference (FICI 0.76 to 2.75))
[4]; [6]
  Combination drug concentration in combination: 4 mg/L
[4]; [7]
  Polymyxin B MIC in combination: 0.5 µg/mL
A. baumannii J2; [8]
  MBC: 4 µg/mL (≈ 11.1 µM)
A. baumannii J2; Acinetobacter baumannii, J2, read-out: MBC +[…] PB
  MBC: 8 µg/mL (≈ 22.1 µM)
[5]; [9]
  MBC: 8 µg/mL (≈ 22.1 µM)
A. baumannii A329; [10]
  MBC: 16 µg/mL (≈ 44.3 µM)
A. baumannii A489; [11]
  MBC: 4 µg/mL (≈ 11.1 µM)
A. baumannii A489; Acinetobacter baumannii, A489, read-out: MBC +[…] PB
  MBC: 8 µg/mL (≈ 22.1 µM)

## C[C@@H](O)[C@H]1C(=O)N2C(C(=O)O)=C(S[C@@H]3CN[C@H](C(=O)N(C)C)C3)[C@H](C)[C@H]12 [Meropenem]
A. baumannii J2; [8]
  MBC: ≤ 0.125 µg/mL
A. baumannii J2; [12]
  MBC: 1 µg/mL (≈ 2.61 µM)
[5]; [9]
  MBC: 0.25 µg/mL (≈ 0.652 µM)
[5]; Acinetobacter, read-out: MBC +[…] PB, Acinetobacter spp. H064200250, +[…] polymyxin B, 1st experiment
  MBC: 1 µg/mL (≈ 2.61 µM)
A. baumannii A329; [10]
  MBC: 32 µg/mL (≈ 83.4 µM)
A. baumannii A489; [11]
  MBC: ≤ 0.125 µg/mL
A. baumannii A489; [13]
  MBC: 0.5 µg/mL (≈ 1.3 µM)

## Polymyxin B [reference compound]
[1]
  Polymyxin B MIC alone: 0.25 µg/mL and 0.5 µg/mL
[2]
  Polymyxin B MIC alone: 0.5 µg/mL
[3]
  Polymyxin B MIC alone: 0.5 µg/mL
[4]
  Polymyxin B MIC alone: 0.5 µg/mL
A. baumannii J2; A. baumannii J2, +[…] PB, preliminary MBC, 2nd experiment
  MBC: ≤0.125 µg/mL
A. baumannii J2; A. baumannii J2, +[…] polymyxin B, preliminary MBC, 1st experiment
  MBC +[…] PB: 0.5 µg/mL
A. baumannii J2; A. baumannii J2, without PB, preliminary MBC, 2nd experiment
  MBC: 0.5 µg/mL
A. baumannii J2; A. baumannii J2, without polymyxin B, preliminary MBC, 1st experiment
  MBC without PB: 0.5 µg/mL
[5]; [14]
  MBC: 0.25 µg/mL
[5]; Acinetobacter spp. H064200250 (OXA51), without PB, 2nd experiment
  MBC: 0.25 µg/mL
[5]; Acinetobacter spp. H064200250, +[…] polymyxin B, 1st experiment
  MBC +[…] PB: 0.5 µg/mL
[5]; Acinetobacter spp. H064200250, without polymyxin B, 1st experiment
  MBC without PB: 0.5 µg/mL
A. baumannii A329; [15]
  MBC: 0.25 µg/mL
A. baumannii A329; A. baumannii A329, without PB
  MBC: 0.25 µg/mL
A. baumannii A329; A. baumannii A329, without polymyxin B, 1st experiment
  MBC without PB: 0.5 µg/mL
A. baumannii A489; A. baumannii A489, +[…] PB, preliminary MBC, 2nd experiment
  MBC: 0.25 µg/mL
A. baumannii A489; A. baumannii A489, +[…] polymyxin B, preliminary MBC, 1st experiment
  MBC +[…] PB: 1 µg/mL
A. baumannii A489; A. baumannii A489, without PB, preliminary MBC, 2nd experiment
  MBC: 0.5 µg/mL
A. baumannii A489; A. baumannii A489, without polymyxin B, preliminary MBC, 1st experiment
  MBC without PB: 2 µg/mL

## COc1c(N2C[C@@H]3CCCN[C@@H]3C2)c(F)cc2c(=O)c(C(=O)O)cn(C3CC3)c12 [Moxifloxacin]
A. baumannii J2; Acinetobacter baumannii, J2, A. baumannii J2, +[…] PB, preliminary MBC, 2nd experiment
  MBC: 8 µg/mL (≈ 19.9 µM)
A. baumannii J2; [12]
  MBC: 8 µg/mL (≈ 19.9 µM)
[5]; [14]
  MBC: 16 µg/mL (≈ 39.9 µM)
A. baumannii A329; [15]
  MBC: 32 µg/mL (≈ 79.7 µM)
A. baumannii A489; Acinetobacter baumannii, A489, A. baumannii A489, +[…] PB, preliminary MBC, 2nd experiment
  MBC: 4 µg/mL (≈ 9.96 µM)
A. baumannii A489; [13]
  MBC: 4 µg/mL (≈ 9.96 µM)
